Experimental data: US20100298141A1, “SUBSTITUTED PYRIDINE N-OXIDE HERBICIDES” (E. I. DU PONT DE NEMOURS AND COMPANY, priority 2007, published 2010)

What was measured:
Goosegrass = experiment: Test C pre-/postemergence test; type: in vivo, Eleusin indica; settings: for Plant response rating, Goosegrass: 31 g ai/ha, scale 0 to 100 (0 no effect, 100 complete control)
Procedure, shortened: (§1)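 Test chemicals were formulated with surfactant in a non-phytotoxic solvent and sprayed both on freshly planted seeds (preemergence) and on 1- to 4-leaf plants of 2–18 cm (postemergence). Flooded-paddy pots received compound directly into 3 cm of standing water, maintained for the test.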

corn [1] = experiment: Test A pre-/postemergence greenhouse test; type: in vivo, Zea mays; settings: for Corn plant response rating: 0 to 100 scale; for Plant response rating, Corn: 0 to 100 scale where 0 is no effect and 100 is complete control
Procedure, shortened: (§2)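 Pre: directed soil spray on seeded loam/sand. Post: foliar spray, plants 2–10 cm, 1–2 leaf stage, applied concurrently. Vehicle: non-phytotoxic solvent + surfactant. Greenhouse ~10 d; visual injury rating vs untreated controls.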

duck salad = experiment: Test C flooded paddy test; type: in vivo, Heteranthera limosa; settings: Flood
Procedure, shortened: (§3)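 Flooded 3 cm over soil; compound into paddy water; depth kept constant. Greenhouse 13–15 d.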

corn [2] = experiment: Test C pre-/postemergence test; type: in vivo, Zea mays; settings: for Plant response rating, Corn: 31 g ai/ha, scale 0 to 100 (0 no effect, 100 complete control)
Procedure, shortened: as §1

velvetleaf = experiment: Test A pre-/postemergence greenhouse test; type: in vivo, Abutilon theophrasti; settings: for Velvetleaf plant response rating: 0 to 100 scale; for Plant response rating, Velvetleaf: 0 to 100 scale where 0 is no effect and 100 is complete control
Procedure, shortened: as §2

green foxtail = experiment: Test C pre-/postemergence test; type: in vivo, Setaria viridis; settings: for Plant response rating, Foxtail, Green: 31 g ai/ha, scale 0 to 100 (0 no effect, 100 complete control)
Procedure, shortened: as §1

crabgrass [3] = experiment: Test C pre-/postemergence test; type: in vivo, Digitaria sanguinalis; settings: for Plant response rating, Crabgrass, Large: 31 g ai/ha, scale 0 to 100 (0 no effect, 100 complete control)
Procedure, shortened: as §1

barnyardgrass [4] = experiment: Test A pre-/postemergence greenhouse test; type: in vivo, Echinochloa crus-galli; settings: for Barnyardgrass plant response rating: 0 to 100 scale; for Plant response rating, Barnyardgrass: 0 to 100 scale where 0 is no effect and 100 is complete control
Procedure, shortened: as §2

yellow nutsedge = experiment: Test C pre-/postemergence test; type: in vivo, Cyperus esculentus; settings: for Plant response rating, Nutsedge, Yellow: 31 g ai/ha, scale 0 to 100 (0 no effect, 100 complete control)
Procedure, shortened: as §1

pigweed = experiment: Test C pre-/postemergence test; type: in vivo, Amaranthus retroflexus; settings: for Plant response rating, Pigweed: 31 g ai/ha, scale 0 to 100 (0 no effect, 100 complete control)
Procedure, shortened: as §1

johnsongrass = experiment: Test C pre-/postemergence test; type: in vivo, Sorghum halepense; settings: for Plant response rating, Johnsongrass: 31 g ai/ha, scale 0 to 100 (0 no effect, 100 complete control)
Procedure, shortened: as §1

bermudagrass = experiment: Test C pre-/postemergence test; type: in vivo, Cynodon dactylon; settings: for Plant response rating, Bermudagrass: 31 g ai/ha
Procedure, shortened: as §1

Italian ryegrass = experiment: Test C pre-/postemergence test; type: in vivo, Lolium multiflorum; settings: for Plant response rating, Ryegrass, Italian: 31 g ai/ha, scale 0 to 100 (0 no effect, 100 complete control)
Procedure, shortened: as §1

umbrella sedge = experiment: Test C flooded paddy test; type: in vivo, Cyperus difformis; settings: Flood
Procedure, shortened: as §3

soybean = experiment: Test C pre-/postemergence test; type: in vivo, Glycine max
Procedure, shortened: as §1

crabgrass [5] = experiment: Test A pre-/postemergence greenhouse test; type: in vivo, Digitaria sanguinalis; settings: for Crabgrass, Large plant response rating: 0 to 100 scale; for Plant response rating, Crabgrass, Large: 0 to 100 scale where 0 is no effect and 100 is complete control
Procedure, shortened: as §2

barnyardgrass [6] = experiment: Test C flooded paddy test; type: in vivo, Echinochloa crus-galli; settings: Flood
Procedure, shortened: as §3

[7] = 62 g ai/ha, Preemergence, scale 0 to 100
[8] = Postemergence, 125 g ai/ha, 0 is no effect, 100 is complete control
[9] = Postemergence, 500 g ai/ha, 0 is no effect, 100 is complete control
[10] = Preemergence, 125 g ai/ha, 0 no effect, 100 complete control
[11] = 31 g ai/ha, scale 0 to 100 (0 no effect, 100 complete control)
[12] = 62 g ai/ha, scale 0 to 100, 0 no effect, 100 complete control, 13 to 15 days
[13] = 125 g ai/ha, scale 0 to 100, 0 no effect, 100 complete control, 13 to 15 days
[14] = 250 g ai/ha, scale 0 to 100 (0 no effect, 100 complete control)
[15] = preemergence, 125 g ai/ha, scale 0 (no effect) to 100 (complete control)
[16] = 62 g ai/ha, Preemergence, scale 0 to 100 (0 no effect, 100 complete control)
[17] = Preemergence, scale 0 to 100 (0 no effect, 100 complete control)
[18] = 250 g ai/ha, scale 0 to 100, 0 no effect, 100 complete control, 13 to 15 days
[19] = 125 g ai/ha, preemergence, scale 0 (no effect) to 100 (complete control)
[20] = preemergence, 250 g ai/ha, scale 0 (no effect) to 100 (complete control)
[21] = 62 g ai/ha, scale 0 to 100 (0 no effect, 100 complete control)

Cn1nc(C(F)(F)F)c(C[S+]([O-])c2ccc(Cl)c[n+]2[O-])c1Cl (racemic) [Compound 17]
Goosegrass plant response rating (Goosegrass; [7]): 100
Plant response rating, Goosegrass (Goosegrass; Preemergence): 100
Plant response rating (0 to 100), Goosegrass (Goosegrass; Preemergence, 250 g ai/ha): 100
Corn plant response rating (corn [1]; [8]): 50
Corn plant response rating (corn [1]; [9]): 60
Corn plant response rating (corn [1]; [10]): 0
Plant response rating, Corn (corn [1]; Preemergence, 500 g ai/ha): 80
Plant response rating, Ducksalad (duck salad; [11]): 60
Plant response rating, Ducksalad (duck salad; [12]): 80
Plant response rating, Ducksalad (duck salad; [13]): 85
Plant response rating, Ducksalad (duck salad; [14]): 95
Corn plant response rating (corn [2]; [7]): 85
Plant response rating, Corn (corn [2]; Preemergence): 60
Plant response rating (0 to 100), Corn (corn [2]; Preemergence, 250 g ai/ha): 100
Corn plant response rating (corn [2]; [15]): 98
Velvetleaf plant response rating (velvetleaf; [8]): 50
Velvetleaf plant response rating (velvetleaf; [9]): 80
Velvetleaf plant response rating (velvetleaf; [10]): 60
Plant response rating, Velvetleaf (velvetleaf; Preemergence, 500 g ai/ha): 100
Foxtail, Green plant response rating (green foxtail; [7]): 100
Plant response rating, Foxtail, Green (green foxtail; Preemergence): 70
Plant response rating (0 to 100), Foxtail, Green (green foxtail; Preemergence, 250 g ai/ha): 100
Crabgrass, Large plant response rating (crabgrass [3]; [7]): 100
Plant response rating, Crabgrass, Large (crabgrass [3]; Preemergence): 98
Plant response rating (0 to 100), Crabgrass, Large (crabgrass [3]; Preemergence, 250 g ai/ha): 100
Barnyardgrass plant response rating (barnyardgrass [4]; [8]): 80
Barnyardgrass plant response rating (barnyardgrass [4]; [9]): 90
Barnyardgrass plant response rating (barnyardgrass [4]; [10]): 70
Plant response rating, Barnyardgrass (barnyardgrass [4]; Preemergence, 500 g ai/ha): 100
Nutsedge, Yellow plant response rating (yellow nutsedge; [7]): 80
Plant response rating, Nutsedge, Yellow (yellow nutsedge; Preemergence): 70
Pigweed plant response rating (pigweed; [7]): 100
Plant response rating, Pigweed (pigweed; Preemergence): 100
Johnsongrass plant response rating (johnsongrass; [7]): 100
Plant response rating, Johnsongrass (johnsongrass; Preemergence): 98
Plant response rating (0 to 100), Johnsongrass (johnsongrass; Preemergence, 250 g ai/ha): 100
Bermudagrass plant response rating (bermudagrass; [16]): 100
Plant response rating, Bermudagrass (bermudagrass; [17]): 80
Plant response rating (0 to 100), Bermudagrass (bermudagrass; Preemergence, 250 g ai/ha): 100
Bermudagrass plant response rating (bermudagrass; [15]): 100
Ryegrass, Italian plant response rating (Italian ryegrass; [7]): 60
Plant response rating, Ryegrass, Italian (Italian ryegrass; Preemergence): 30
Plant response rating, Sedge, Umbrella (umbrella sedge; [11]): 60
Plant response rating, Sedge, Umbrella (umbrella sedge; [12]): 85
Plant response rating, Sedge, Umbrella (umbrella sedge; [13]): 95
Plant response rating, Sedge, Umbrella (umbrella sedge; [18]): 95
Soybean plant response rating (soybean; [7]): 20
Plant response rating, Soybean (soybean; Preemergence, 31 g ai/ha, scale 0 to 100 (0 no effect, 100 complete control)): 0
Crabgrass, Large plant response rating (crabgrass [5]; [8]): 80
Crabgrass, Large plant response rating (crabgrass [5]; [9]): 90
Crabgrass, Large plant response rating (crabgrass [5]; [10]): 90
Plant response rating, Crabgrass, Large (crabgrass [5]; Preemergence, 500 g ai/ha): 100
Plant response rating, Barnyardgrass (barnyardgrass [6]; [11]): 20
Plant response rating, Barnyardgrass (barnyardgrass [6]; [12]): 65
Plant response rating, Barnyardgrass (barnyardgrass [6]; [13]): 85
Plant response rating, Barnyardgrass (barnyardgrass [6]; [14]): 85

CCc1cc[n+]([O-])c([S+]([O-])Cc2c(C(F)(F)F)nn(C)c2OCC(F)(F)F)c1 (stereo not drawn) [Compound 59]
Goosegrass plant response rating (Goosegrass; [7]): 100
Goosegrass plant response rating (Goosegrass; [19]): 100
Plant response rating, Goosegrass (Goosegrass; Preemergence): 100
Goosegrass plant response rating (Goosegrass; [20]): 100
Plant response rating, Corn (corn [1]; Postemergence, 125 g ai/ha): 50
Corn plant response rating (corn [1]; [9]): 70
Corn plant response rating (corn [1]; [10]): 20
Plant response rating, Corn (corn [1]; Preemergence, 500 g ai/ha): 90
Plant response rating, Ducksalad (duck salad; [21]): 40
Plant response rating, Ducksalad (duck salad; [18]): 90
Corn plant response rating (corn [2]; [7]): 45
Corn plant response rating (corn [2]; [19]): 100
Plant response rating, Corn (corn [2]; Preemergence): 25
Corn plant response rating (corn [2]; [20]): 100
Plant response rating, Velvetleaf (velvetleaf; Postemergence, 125 g ai/ha): 60
Velvetleaf plant response rating (velvetleaf; [9]): 80
Velvetleaf plant response rating (velvetleaf; [10]): 60
Plant response rating, Velvetleaf (velvetleaf; Preemergence, 500 g ai/ha): 100
Foxtail, Green plant response rating (green foxtail; [7]): 95
Foxtail, Green plant response rating (green foxtail; [19]): 100
Plant response rating, Foxtail, Green (green foxtail; Preemergence): 0
Foxtail, Green plant response rating (green foxtail; [20]): 100
Crabgrass, Large plant response rating (crabgrass [3]; [7]): 80
Crabgrass, Large plant response rating (crabgrass [3]; [19]): 100
Plant response rating, Crabgrass, Large (crabgrass [3]; Preemergence): 70
Crabgrass, Large plant response rating (crabgrass [3]; [20]): 100
Plant response rating, Barnyardgrass (barnyardgrass [4]; Postemergence, 125 g ai/ha): 80
Barnyardgrass plant response rating (barnyardgrass [4]; [9]): 90
Barnyardgrass plant response rating (barnyardgrass [4]; [10]): 100
Plant response rating, Barnyardgrass (barnyardgrass [4]; Preemergence, 500 g ai/ha): 100
Nutsedge, Yellow plant response rating (yellow nutsedge; [7]): 30
Nutsedge, Yellow plant response rating (yellow nutsedge; [19]): 85
Plant response rating, Nutsedge, Yellow (yellow nutsedge; Preemergence): 0
Nutsedge, Yellow plant response rating (yellow nutsedge; [20]): 95
Pigweed plant response rating (pigweed; [7]): 100
Pigweed plant response rating (pigweed; [19]): 100
Plant response rating, Pigweed (pigweed; Preemergence): 0
Pigweed plant response rating (pigweed; [20]): 100
Johnsongrass plant response rating (johnsongrass; [7]): 60
Johnsongrass plant response rating (johnsongrass; [19]): 100
Plant response rating, Johnsongrass (johnsongrass; Preemergence): 45
Johnsongrass plant response rating (johnsongrass; [20]): 100
Bermudagrass plant response rating (bermudagrass; [16]): 100
Bermudagrass plant response rating (bermudagrass; [19]): 100
Plant response rating, Bermudagrass (bermudagrass; [17]): 70
Bermudagrass plant response rating (bermudagrass; [20]): 100
Ryegrass, Italian plant response rating (Italian ryegrass; [7]): 55
Ryegrass, Italian plant response rating (Italian ryegrass; [19]): 80
Plant response rating, Ryegrass, Italian (Italian ryegrass; Preemergence): 30
Ryegrass, Italian plant response rating (Italian ryegrass; [20]): 95
Plant response rating, Sedge, Umbrella (umbrella sedge; [21]): 80
Plant response rating, Sedge, Umbrella (umbrella sedge; [18]): 100
Soybean plant response rating (soybean; [7]): 10
Soybean plant response rating (soybean; [19]): 100
Soybean plant response rating (soybean; [20]): 100
Plant response rating, Crabgrass, Large (crabgrass [5]; Postemergence, 125 g ai/ha): 50
Crabgrass, Large plant response rating (crabgrass [5]; [9]): 90
Crabgrass, Large plant response rating (crabgrass [5]; [10]): 90
Plant response rating, Crabgrass, Large (crabgrass [5]; Preemergence, 500 g ai/ha): 100
Plant response rating, Barnyardgrass (barnyardgrass [6]; [21]): 30
Plant response rating, Barnyardgrass (barnyardgrass [6]; [18]): 60
